Experiment [1] relates to HCT-116 human colorectal carcinoma cells. In words: Alamar Blue (AB) cell proliferation assay, HCT-116. It counts as cell-based. To be noted: 96 h, Alamar Blue cell proliferation inhibition, HCT-116, four days. How it is done: A representative cell-proliferation assay protocol using Alamar Blue dye (stored at 4° C., use 20 ul per well) is described hereafter.
96-Well Plate Setup and Compound Treatment
a. Split and trypsinize cells.
b. Count cells using hemocytometer.
c. Plate 4,000-5,000 cells per well in 100 μl of medium and seed into a 96-well plate according to the following plate layout. Add cell culture medium only to wells B10 to B12. Wells B1 to B9 have cells but no compound added.
d. Add 100 μl of 2× drug dilution to each well in a concentration shown in the plate layout above. At the same time, add 100 μl of media into the control wells (wells B10 to B12). Total volume is 200 μl/well.
e. Incubate four (4) days at 37° C., 5% CO2 in a humidified incubator.
f. Add 20 μl Alamar Blue reagent to each well.
g. Incubate for four (4) hours at 37° C., 5% CO2 in a humidified incubator.
h. Record fluorescence at an excitation wavelength of 544 nm and emission wavelength of 590 nm using a microplate reader.
In the assays, cells are cultured with a test compound for approximately four days, the dye then is added to the cells and fluorescence of […] dye is detected after approximately four hours. Different types of cells can be utilized in the assays (e.g., HCT-116 human colorectal carcinoma cells, PC-3 human prostatic cancer cells and MiaPaca human pancreatic carcinoma cells). Anti-proliferative effects of representative compounds are provided hereafter.
Representative cassette dosing and bioavailability data are given in Table 8, along with cell proliferation inhibition (from Alamar Blue (AB) assay (e.g., Example 45 herein) and rRNA inhibition (from quantitative PCR (QPCR) assay (e.g., Example 46 herein).

For experiment [2], the system named is rDNA. In words: Quantitative PCR (QPCR) assay, rRNA inhibition (rDNA). It counts as cell-based. Also on record: Selectivity: reference not given here. The settings on record: for Selectivity: not defined in the patent; for IC50: rRNA inhibition from quantitative PCR assay. From the text: In a specific assay embodiment, provided herein is a method for identifying a molecule that modulates ribosomal RNA (rRNA) synthesis, which comprises: contacting cells with a test molecule of Formula (I), (II), (III), (IV), (V), (VI), (VI′), (VII), or (VIII), contacting a ribosomal nucleotide sequence with one or more primers that amplify a portion thereof and a labeled probe that hybridizes to the amplification product, and detecting the amount of the amplification product by hybridization of the labeled probe, whereby a test molecule that reduces or increases the amount of amplification product is identified as a molecule that modulates rRNA synthesis. The labeled probe in some embodiments is added after the primers are added and the rRNA is amplified, and in certain embodiments, the labeled probe and the primers are added at the same time. The portion of ribosomal nucleotide sequence amplified sometimes is at the 5′ end of rDNA.
Real-time quantitative PCR (QPCR) method may be used to detect the changes of the target c-myc and the endogenous reference GAPDH gene copies in the same tube. Generally, cells (15,000 cells/well) are seeded on 96 well flat bottom plates (Corning, N.Y.) and incubated under normal growth conditions for overnight. The next day, the culture medium is exchanged for that containing anticancer drugs at various concentrations and incubated for 4 hrs in a humidified atmosphere of 5% CO2 at 37° C. Total RNA (tRNA) is extracted using the RNeasy 96 Kit (QIAGEN, CA). The concentration of the tRNA is determined by the RiboGreen RNA Quantitation Reagent (Molecular Probes, OR).
A reverse-transcription (RT) reaction may be conducted using 50 ng of tRNA from each well in a 25 μl reaction containing 1× TaqMan RT buffer, 2.5 uM random hexamers, 5.5 mM MgCl2, 0.5 mM each deoxynucleoside triphosphate (dNTP), 30 U MultiScribe Reverse Transcriptase, and 10 U RNase inhibitor. RT reactions are incubated for 10 min at 25° C., reverse-transcribed for 30 min at 48° C., inactivated for 5 min at 95° C., and placed at 4° C. All RT reagents may be purchased from Applied Biosystems, CA.
Real-Time QPCR reaction may be performed in a 50 μl reaction containing the 5 μl of cDNA, 1× Universal PCR Master Mix, 1× c-myc Pre-Developed Primers and Probe set, and 0.8×GAPDH Pre-Developed Primers and Probe set. Because of the relative abundance of GAPDH gene in Hela, GAPDH primers and probe concentration may be adjusted to get accurate threshold cycles (CT) for both genes in the same tube. The threshold cycle (CT) indicates the fractional cycle number at which the amount of amplified target reaches a fixed threshold. By doing so, the GAPDH amplification is stopped before it can limit the common reactants available for amplification of the c-myc. The ΔRn value represents the normalized reporter signal minus the baseline signal. ΔRn increases during PCR as amplicon copy number increases until the reaction approaches a plateau.
The c-myc probe is labeled with 6FAM™ dye-MGB and the GAPDH probe is labeled with VIC™ dye-MTB. Preincubation is performed for 2 min at 50° C. to activate AmpErase UNG enzyme and then for 10 min at 95° C. to activate AmpliTaq DNA Polymerase. DNA is amplified for 40 cycles of 15 sec at 95° C. and 1 min at 60° C. Human c-myc and GAPDH cDNA are amplified, detected, and quantitated in real time using the ABI Prism 7000 Sequence Detection system (Applied Biosystems, CA), which is set to detect both 6-FAM and VIC reporter dyes simultaneously.
The data may be analyzed using the ABI PRISM Sequence Detection System and Microsoft Excel. Relative quantitation is done using the standard curve and comparative CT method at the same time, and both methods gave equivalent results. The cycle at which the amplification plot crosses the CT is known to accurately reflect relative mRNA values. (See, Heid, et al., Genome Res. (1996) 6:986-994; Gibson, et al., Genome Res. (1996) 6:995-1001). […]

The structures appear in SMILES notation.

For `O=C(NCCN1CCCC1)c1c(=O)c2ccc(N3CCOCC3)nc2n2c1sc1ccccc12`, the midpoint of inhibition in experiment [1], the IC50, lay at 59 nM. In experiment [2], the Selectivity is given as 162 and the IC50 is 52 nM.

`CN1CCCC1CCNC(=O)c1c(=O)c2ccc(N3CCOCC3)nc2n2c1sc1ccccc12` (stereo not drawn) had an IC50 in experiment [1] of 55 nM. In experiment [2], this compound yielded a Selectivity of 42 and a half-maximal inhibitory concentration (IC50) of 249 nM.

As for `Cn1c2ccccc2n2c3nc(N4CCOCC4)ccc3c(=O)c(C(=O)NCCN3CCCC3)c12`, the IC50 in experiment [1] was 75 nM. Also, in experiment [2], the Selectivity came out at 3 and the IC50 came out at 261 nM.

In turn, `CN1CCCC1CCNC(=O)c1cn2c3c(c(N4CCOCC4)c(F)cc3c1=O)Oc1ccccc1-2` (stereo not drawn) returned an IC50 in experiment [1] of 389 nM. In experiment [2], this compound displayed a Selectivity of 12 and an IC50 of 405 nM.

In experiment [1], `CN1CCCC1CCNC(=O)c1c(=O)c2cc(F)c(N3CCOCC3)nc2n2c1sc1ccccc12` (stereo not drawn) displayed an IC50 of 337 nM. Besides, in experiment [2], the Selectivity is recorded as 10 and the IC50 is 892 nM.

In turn, `O=C(NCCN1CCCC1)c1c(=O)c2cc(F)c(N3CCOCC3)nc2n2c1sc1ccccc12` registered an IC50 in experiment [1] of 81 nM. In experiment [2], this compound displayed a Selectivity of 70 and a concentration for half-maximal inhibition (IC50) of 127 nM.

Take `CN1CCN(C(=O)c2c(=O)c3cc(F)c(N4CCOCC4)nc3n3c2sc2ccccc23)CC1`: the IC50 in experiment [1] is 386 nM; in experiment [2] it was 1150 nM. In addition, in experiment [2], the Selectivity worked out at 7.

Take `O=C(NCCN1CCC(O)C1)c1c(=O)c2cc(F)c(N3CCOCC3)nc2n2c1sc1ccccc12` (stereo not drawn): half-maximal inhibition in experiment [1] (IC50) was put at 55 nM. For the same compound, in experiment [2], the Selectivity was 10 and the IC50 was determined as 10 nM.

`CN1CCC(N(C)C(=O)c2c(=O)c3cc(F)c(N4CCOCC4)nc3n3c2sc2ccccc23)C1` (stereo not drawn): the IC50 in experiment [1] was 174 nM. In addition, in experiment [2], the Selectivity was found to be 5 and the IC50 turned out to be 381 nM.

The compound `O=C(NCCNCC1CCCO1)c1c(=O)c2ccc(N3CCOCC3)nc2n2c1sc1ccccc12` (stereo not drawn) yielded a half-maximal inhibitory concentration (IC50) in experiment [1] of 116 nM. In experiment [2], this compound displayed a Selectivity of 119 and a 50% inhibitory concentration (IC50) of 40 nM.

The compound `O=C(NCCN1CC=CC1)c1c(=O)c2ccc(N3CCOCC3)nc2n2c1sc1ccccc12` gave an IC50 in experiment [1] of 130 nM. In experiment [2], this compound came in with a Selectivity of 22 and an IC50 of 64 nM.

For the compound `Cn1cncc1CNC(=O)c1c(=O)c2ccc(N3CCOCC3)nc2n2c1sc1ccccc12`, the figures for the IC50 in experiment [1] and in experiment [2] were 174 nM and 262 nM, respectively. In addition, in experiment [2], the Selectivity amounted to 60.

`O=C(c1c(=O)c2ccc(N3CCOCC3)nc2n2c1sc1ccccc12)N1CCN(c2ncccn2)CC1` registered an IC50 in experiment [1] of 461 nM. In addition, in experiment [2], the Selectivity is given as 13 and the IC50 was 578 nM.

For the compound `O=C(c1c(=O)c2ccc(N3CCOCC3)nc2n2c1sc1ccccc12)N1CCN(c2ccccn2)CC1`, the values for the IC50 in experiment [1] and in experiment [2] were 210 nM and 723 nM, respectively. In addition, the Selectivity in experiment [2] was 17.

Consider `O=C(NCCN1CC=CC1)c1cn2c3c(c(N4CCC(c5cnccn5)C4)c(F)cc3c1=O)Oc1cc3ccccc3cc1-2` (stereo not drawn), for which the midpoint of inhibition in experiment [1], the IC50, lay at 398 nM. Besides, in experiment [2], the Selectivity came out at 24 and half-maximal inhibition (IC50) required 1040 nM.

As for `O=C(NCCN1CC=CCC1)c1c(=O)c2ccc(N3CCOCC3)nc2n2c1sc1ccccc12`, the concentration for half-maximal inhibition (IC50) in experiment [1] was found to be 98 nM; in experiment [2] it was 32 nM. Moreover, the Selectivity in experiment [2] is listed as 64.

Consider `O=C(NCCN1CC=CC1)c1c(=O)c2cc(F)c(N3CCOCC3)nc2n2c1sc1ccccc12`, for which half-maximal inhibition in experiment [1] (IC50) was put at 392 nM. Moreover, in experiment [2], the Selectivity is on record as 3 and 42 nM corresponded to half-maximal inhibition (IC50).

Take `O=C(NCCNCCF)c1c(=O)c2ccc(N3CCOCC3)nc2n2c1sc1ccccc12`: the IC50 in experiment [1] turned out to be 135 nM. In experiment [2], this compound had a Selectivity of 48 and an IC50 of 59 nM.

`O=C(NCCNCC(F)(F)F)c1c(=O)c2ccc(N3CCOCC3)nc2n2c1sc1ccccc12`: the half-maximal inhibitory concentration (IC50) in experiment [1] was found to be 535 nM; in experiment [2] it was 502 nM. This compound also had a Selectivity in experiment [2] of 15.

The compound `O=C(NCCNCCF)c1c(=O)c2cc(F)c(N3CCOCC3)nc2n2c1sc1ccccc12` gave an IC50 in experiment [1] of 484 nM. In experiment [2], the Selectivity was determined as 70 and the IC50 was 147 nM.

The values are drawn from patent publication US8853234B2, “Quinolone analogs and methods related thereto” (Senhwa Biosciences, Inc., priority 2007, dated 2014).
